# Assay results from ChEMBL document CHEMBL1140084, “Discovery and evaluation of 4-(2-(4-chloro-1H-pyrazol-1-yl)ethylamino)-3-(6-(1-(3-fluoropropyl)piperidin-4-yl)-4-methyl-1H-benzo[d]imidazol-2-yl)pyridin-2(1H)-one (BMS-695735), an orally efficacious inhibitor of insulin-like growth factor-1 receptor kinase with broad spectrum in vivo antitumor …” (J Med Chem, 2008).
# Calls of active or inactive are those of the source. No cut-off for these calls is given here.
# Columns and labels:
# [1] = Protein binding in mouse plasma at 10 uM by equilibrium dialysis; assay type: ADME, cell-free; conditions: read-out: PPB (converted)
# Cytochrome P450 3A4 = Cytochrome P450 3A4 (Homo sapiens, UniProt P08684); assay: Inhibition of human recombinant CYP3A4 in human liver microsomes using BFC as a substrate
# Sequence of Cytochrome P450 3A4 (P08684 whole entry): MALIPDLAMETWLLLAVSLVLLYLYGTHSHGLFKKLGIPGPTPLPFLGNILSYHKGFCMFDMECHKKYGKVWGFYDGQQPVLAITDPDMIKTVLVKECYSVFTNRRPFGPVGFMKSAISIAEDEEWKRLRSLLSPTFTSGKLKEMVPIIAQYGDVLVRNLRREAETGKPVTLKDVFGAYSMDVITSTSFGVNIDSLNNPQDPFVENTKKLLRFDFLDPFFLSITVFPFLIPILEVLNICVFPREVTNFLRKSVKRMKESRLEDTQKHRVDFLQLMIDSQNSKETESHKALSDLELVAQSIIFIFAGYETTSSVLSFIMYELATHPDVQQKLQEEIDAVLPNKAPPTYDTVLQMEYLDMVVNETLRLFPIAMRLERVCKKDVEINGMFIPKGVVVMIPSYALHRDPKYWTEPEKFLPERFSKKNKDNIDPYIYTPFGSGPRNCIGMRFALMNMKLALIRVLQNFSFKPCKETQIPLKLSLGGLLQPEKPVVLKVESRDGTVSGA
# [2] = Antiproliferative activity against transgenic mouse SAL cells overexpressing human IGF1R assessed as [3H]thymidine incorporation after 72 hrs
# [3] = target: T1, Nuclear receptor subfamily 1 group I member 2 (Homo sapiens, UniProt O75469); assay: Induction of PXR transactivation
# T1 sequence (O75469 whole entry): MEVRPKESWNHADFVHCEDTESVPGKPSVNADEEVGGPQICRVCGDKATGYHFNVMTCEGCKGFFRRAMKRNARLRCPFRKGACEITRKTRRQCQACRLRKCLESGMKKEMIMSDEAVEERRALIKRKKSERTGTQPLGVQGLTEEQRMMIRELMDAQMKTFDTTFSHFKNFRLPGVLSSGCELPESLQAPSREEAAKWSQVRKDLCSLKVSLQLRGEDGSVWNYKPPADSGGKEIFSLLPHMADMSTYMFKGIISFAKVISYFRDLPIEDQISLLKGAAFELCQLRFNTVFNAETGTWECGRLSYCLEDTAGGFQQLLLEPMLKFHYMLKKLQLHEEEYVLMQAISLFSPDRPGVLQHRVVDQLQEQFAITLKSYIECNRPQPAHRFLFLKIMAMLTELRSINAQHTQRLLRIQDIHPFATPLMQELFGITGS
# [4] = AUC in mouse at 20 mg/kg after 4 hrs; assay type: ADME, organism-based; parameters: time < 4 hr, dose 20 mg/kg; conditions: plasma
# Cytochrome P450 1A2 = Cytochrome P450 1A2 (Homo sapiens, UniProt P05177); assay: Inhibition of human recombinant CYP1A2 in human liver microsomes; assay type: ADME, Microsome
# [5] = Apparent permeability across human CaCo2 cells; assay type: ADME, cell-based; conditions: Caco-2
# [6] = Half life in rat at 2 mg/kg, iv and 10 mg/kg, po; assay type: ADME, organism-based; conditions: in vivo
# Mus musculus [7] = assay: Induction of glucose homeostasis in mouse assessed as glucose elevation at 50 mg/kg after glucose challenge by OGTT; assay type: functional, organism-based; parameters: dose 50 mg/kg
# Mus musculus [8] = assay: Induction of glucose homeostasis in mouse assessed as glucose elevation at 100 mg/kg after glucose challenge by OGTT; assay type: functional, organism-based; parameters: dose 100 mg/kg
# [9] = Half life in mouse at 5 mg/kg, iv and 50 mg/kg, po; assay type: ADME, organism-based; conditions: in vivo
# [10] = target: Protein kinase C alpha type (Homo sapiens, UniProt P17252); assay: Inhibition of PKCalpha
# COLO 205 = assay: Antitumor activity against human Colo205 cell xenografted nu/nu athymic mouse at 100 mg/kg, po bid for 21 days; assay type: functional; conditions: COLO 205, 504 h, read-out: TGI
# [11] = Volume of distribution at steady state in monkey at 2 mg/kg, iv and 10 mg/kg, po; assay type: ADME, organism-based, Macaca mulatta; conditions: rhesus monkey, in vivo, read-out: Vdss
# Cytochrome P450 2C9 = Cytochrome P450 2C9 (Homo sapiens, UniProt P11712); assay: Inhibition of human recombinant CYP2C9 in human liver microsomes; assay type: ADME, Microsome
# [12] = Cmax in dog at 10 mg/kg, po; assay type: ADME, organism-based, Canis lupus familiaris; parameters: dose 10 mg/kg, route oral; conditions: in vivo
# [13] = Inhibition of IRK
# Phosphodiesterase 4 = Phosphodiesterase 4 (Homo sapiens, UniProt P27815+Q08499+Q07343+Q08493); assay: Inhibition of human PDE4 in U937 cells; assay type: cell-based; conditions: u-937
# [14] = target: Vascular endothelial growth factor receptor 2 (Homo sapiens, UniProt P35968); assay: Inhibition of GST-tagged KDR
# [15] = Volume of distribution at steady state in dog at 2 mg/kg, iv and 10 mg/kg, po; assay type: ADME, organism-based, Canis lupus familiaris; conditions: in vivo, read-out: Vdss
# Cytochrome P450 2C19 = Cytochrome P450 2C19 (Homo sapiens, UniProt P33261); assay: Inhibition of human recombinant CYP2C19 in human liver microsomes; assay type: ADME, Microsome
# [16] = Total clearance in monkey at 2 mg/kg, iv and 10 mg/kg, po; assay type: ADME, organism-based, Macaca mulatta; conditions: rhesus monkey, in vivo
# [17] = target: MAP kinase-activated protein kinase 2 (Homo sapiens, UniProt P49137); assay: Inhibition of MK2
# Sequence of MAP kinase-activated protein kinase 2 (P49137 whole entry): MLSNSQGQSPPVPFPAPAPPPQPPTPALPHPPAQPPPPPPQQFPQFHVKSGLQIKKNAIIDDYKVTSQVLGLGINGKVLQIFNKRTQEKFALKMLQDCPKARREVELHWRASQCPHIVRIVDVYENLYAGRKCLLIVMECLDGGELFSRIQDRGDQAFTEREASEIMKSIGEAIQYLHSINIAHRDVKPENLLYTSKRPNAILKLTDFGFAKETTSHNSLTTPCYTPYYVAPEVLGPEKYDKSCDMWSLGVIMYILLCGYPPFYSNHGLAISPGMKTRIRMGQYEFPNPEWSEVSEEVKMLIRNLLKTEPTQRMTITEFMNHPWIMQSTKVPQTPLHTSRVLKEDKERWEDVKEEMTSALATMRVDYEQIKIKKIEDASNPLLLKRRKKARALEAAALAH
# [18] = target: Hepatocyte growth factor receptor (Homo sapiens, UniProt P08581); assay: Inhibition of GST-tagged Met
# [19] = target: Insulin-like growth factor 1 receptor (Homo sapiens, UniProt P08069); assay: Inhibition of human IGF1R expressed in transgenic mouse IGFSal cells; assay type: cell-based
# [20] = Cmax in mouse at 50 mg/kg, po; assay type: ADME, organism-based; parameters: dose 50 mg/kg, route oral; conditions: in vivo
# [21] = target: Receptor tyrosine-protein kinase erbB-2 (Homo sapiens, UniProt P04626); assay: Inhibition of GST-tagged HER2
# Sequence of Receptor tyrosine-protein kinase erbB-2 (P04626 whole entry): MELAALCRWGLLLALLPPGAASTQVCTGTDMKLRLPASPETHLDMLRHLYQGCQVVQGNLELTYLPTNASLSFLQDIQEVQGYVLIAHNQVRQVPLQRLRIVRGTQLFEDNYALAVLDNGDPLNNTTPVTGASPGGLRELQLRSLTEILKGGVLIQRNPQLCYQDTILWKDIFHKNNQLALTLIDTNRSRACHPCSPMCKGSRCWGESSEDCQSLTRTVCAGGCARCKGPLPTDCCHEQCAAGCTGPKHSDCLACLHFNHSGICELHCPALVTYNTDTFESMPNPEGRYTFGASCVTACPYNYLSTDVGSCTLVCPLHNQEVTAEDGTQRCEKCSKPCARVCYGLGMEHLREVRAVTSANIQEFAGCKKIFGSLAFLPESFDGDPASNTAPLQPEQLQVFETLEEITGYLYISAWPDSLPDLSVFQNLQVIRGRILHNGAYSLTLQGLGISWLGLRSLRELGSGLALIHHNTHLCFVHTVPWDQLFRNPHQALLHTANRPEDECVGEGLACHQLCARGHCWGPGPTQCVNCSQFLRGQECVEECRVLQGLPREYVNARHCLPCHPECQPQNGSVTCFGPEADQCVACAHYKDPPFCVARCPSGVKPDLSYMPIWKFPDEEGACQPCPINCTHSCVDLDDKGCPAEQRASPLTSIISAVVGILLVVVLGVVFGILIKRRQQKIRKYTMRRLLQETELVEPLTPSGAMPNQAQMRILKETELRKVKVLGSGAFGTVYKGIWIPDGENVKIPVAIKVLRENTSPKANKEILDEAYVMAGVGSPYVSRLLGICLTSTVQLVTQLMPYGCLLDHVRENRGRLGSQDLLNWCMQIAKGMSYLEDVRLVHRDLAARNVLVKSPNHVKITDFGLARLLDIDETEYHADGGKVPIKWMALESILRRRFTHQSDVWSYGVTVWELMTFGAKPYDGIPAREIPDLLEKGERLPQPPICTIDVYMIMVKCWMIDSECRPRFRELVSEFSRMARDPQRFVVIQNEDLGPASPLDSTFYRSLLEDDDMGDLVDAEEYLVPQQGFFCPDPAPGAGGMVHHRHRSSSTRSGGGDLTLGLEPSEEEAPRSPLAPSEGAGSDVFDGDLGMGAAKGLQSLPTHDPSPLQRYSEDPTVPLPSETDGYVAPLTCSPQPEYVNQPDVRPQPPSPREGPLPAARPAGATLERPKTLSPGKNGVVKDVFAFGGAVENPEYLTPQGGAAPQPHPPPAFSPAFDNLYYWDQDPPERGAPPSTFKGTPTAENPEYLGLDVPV
# [22] = Half life in dog at 2 mg/kg, iv and 10 mg/kg, po; assay type: ADME, organism-based, Canis lupus familiaris; conditions: in vivo
# [23] = Oral bioavailability in monkey at 10 mg/kg; assay type: ADME, organism-based, Macaca mulatta; conditions: rhesus monkey, in vivo
# [24] = Inhibition of GST-tagged IKK
# [25] = target: Protein kinase C delta type (Homo sapiens, UniProt Q05655); assay: Inhibition of PKCdelta
# [26] = Oral bioavailability in mouse at 50 mg/kg; assay type: ADME, organism-based; conditions: in vivo
# [27] = Oral bioavailability in rat at 10 mg/kg; assay type: ADME, organism-based; conditions: in vivo
# [28] = Antitumor activity against human Geo cell xenografted nu/nu athymic mouse at 100 mg/kg, po bid for 21 days; assay type: functional; conditions: 504 h, read-out: TGI
# [29] = Oral bioavailability in dog at 10 mg/kg; assay type: ADME, organism-based, Canis lupus familiaris; conditions: in vivo
# [30] = target: RAC-alpha serine/threonine-protein kinase (Homo sapiens, UniProt P31749); assay: Inhibition of AKT
# Hepatocyte = assay: Cytotoxicity against human hepatocytes; assay type: cell-based
# [31] = Half life in monkey at 2 mg/kg, iv and 10 mg/kg, po; assay type: ADME, organism-based, Macaca mulatta; conditions: rhesus monkey, in vivo
# [32] = Inhibition of His-tagged GSK3
# [33] = Total clearance in dog at 2 mg/kg, iv and 10 mg/kg, po; assay type: ADME, organism-based, Canis lupus familiaris; conditions: in vivo
# [34] = target: Tyrosine-protein kinase ITK/TSK (Homo sapiens, UniProt Q08881); assay: Inhibition of GST-tagged Emt
# Sequence of Tyrosine-protein kinase ITK/TSK (Q08881 whole entry): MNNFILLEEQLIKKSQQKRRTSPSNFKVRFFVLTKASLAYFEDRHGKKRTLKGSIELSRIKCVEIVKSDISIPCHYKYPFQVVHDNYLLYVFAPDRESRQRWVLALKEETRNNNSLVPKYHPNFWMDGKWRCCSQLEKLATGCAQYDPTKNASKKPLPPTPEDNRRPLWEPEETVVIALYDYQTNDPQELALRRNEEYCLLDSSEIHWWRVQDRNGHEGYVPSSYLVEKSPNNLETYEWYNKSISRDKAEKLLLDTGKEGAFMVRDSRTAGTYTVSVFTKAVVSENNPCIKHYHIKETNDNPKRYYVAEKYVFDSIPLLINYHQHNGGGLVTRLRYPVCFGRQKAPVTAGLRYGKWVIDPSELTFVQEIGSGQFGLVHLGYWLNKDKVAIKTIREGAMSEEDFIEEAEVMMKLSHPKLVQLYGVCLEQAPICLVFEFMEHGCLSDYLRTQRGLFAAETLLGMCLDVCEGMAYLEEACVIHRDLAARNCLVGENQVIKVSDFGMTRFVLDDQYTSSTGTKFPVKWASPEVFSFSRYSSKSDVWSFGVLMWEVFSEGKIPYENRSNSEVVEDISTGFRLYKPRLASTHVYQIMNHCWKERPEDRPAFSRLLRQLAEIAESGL
# [35] = target: Epidermal growth factor receptor (Homo sapiens, UniProt P00533); assay: Inhibition of GST-tagged HER1
# Sequence of Epidermal growth factor receptor (P00533 whole entry): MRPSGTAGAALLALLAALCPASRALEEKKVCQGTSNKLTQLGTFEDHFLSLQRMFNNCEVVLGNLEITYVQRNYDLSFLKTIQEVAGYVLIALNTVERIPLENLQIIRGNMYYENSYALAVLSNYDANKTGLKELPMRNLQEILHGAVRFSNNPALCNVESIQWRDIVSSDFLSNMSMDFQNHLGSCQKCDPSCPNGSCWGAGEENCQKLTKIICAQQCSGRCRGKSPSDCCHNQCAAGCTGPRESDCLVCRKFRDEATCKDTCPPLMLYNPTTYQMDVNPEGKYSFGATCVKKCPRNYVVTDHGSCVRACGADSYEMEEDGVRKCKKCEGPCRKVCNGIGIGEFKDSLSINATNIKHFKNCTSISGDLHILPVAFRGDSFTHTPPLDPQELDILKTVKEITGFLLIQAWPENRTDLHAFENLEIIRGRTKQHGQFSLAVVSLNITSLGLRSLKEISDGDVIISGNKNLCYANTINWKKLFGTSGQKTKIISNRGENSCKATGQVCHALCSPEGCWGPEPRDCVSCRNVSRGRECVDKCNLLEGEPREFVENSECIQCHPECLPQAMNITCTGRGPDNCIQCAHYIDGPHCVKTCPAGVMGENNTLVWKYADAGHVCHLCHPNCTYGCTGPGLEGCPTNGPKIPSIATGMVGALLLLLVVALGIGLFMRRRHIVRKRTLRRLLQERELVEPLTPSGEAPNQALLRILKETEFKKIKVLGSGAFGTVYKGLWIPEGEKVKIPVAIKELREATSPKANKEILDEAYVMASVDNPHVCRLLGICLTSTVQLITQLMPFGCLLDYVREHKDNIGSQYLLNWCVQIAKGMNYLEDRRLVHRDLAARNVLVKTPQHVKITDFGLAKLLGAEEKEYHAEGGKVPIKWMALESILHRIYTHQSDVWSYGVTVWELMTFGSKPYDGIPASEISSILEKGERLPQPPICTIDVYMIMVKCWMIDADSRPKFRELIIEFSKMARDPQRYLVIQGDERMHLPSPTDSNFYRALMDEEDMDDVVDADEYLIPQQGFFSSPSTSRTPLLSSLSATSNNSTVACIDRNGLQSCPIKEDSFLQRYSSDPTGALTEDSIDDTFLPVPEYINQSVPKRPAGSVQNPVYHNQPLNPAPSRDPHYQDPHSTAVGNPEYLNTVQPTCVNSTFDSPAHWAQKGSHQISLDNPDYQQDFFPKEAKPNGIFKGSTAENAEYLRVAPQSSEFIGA
# [36] = target: Fibroblast growth factor receptor 1 (Homo sapiens, UniProt P11362); assay: Inhibition of human recombinant FGFR1
# Sequence of Fibroblast growth factor receptor 1 (P11362 whole entry): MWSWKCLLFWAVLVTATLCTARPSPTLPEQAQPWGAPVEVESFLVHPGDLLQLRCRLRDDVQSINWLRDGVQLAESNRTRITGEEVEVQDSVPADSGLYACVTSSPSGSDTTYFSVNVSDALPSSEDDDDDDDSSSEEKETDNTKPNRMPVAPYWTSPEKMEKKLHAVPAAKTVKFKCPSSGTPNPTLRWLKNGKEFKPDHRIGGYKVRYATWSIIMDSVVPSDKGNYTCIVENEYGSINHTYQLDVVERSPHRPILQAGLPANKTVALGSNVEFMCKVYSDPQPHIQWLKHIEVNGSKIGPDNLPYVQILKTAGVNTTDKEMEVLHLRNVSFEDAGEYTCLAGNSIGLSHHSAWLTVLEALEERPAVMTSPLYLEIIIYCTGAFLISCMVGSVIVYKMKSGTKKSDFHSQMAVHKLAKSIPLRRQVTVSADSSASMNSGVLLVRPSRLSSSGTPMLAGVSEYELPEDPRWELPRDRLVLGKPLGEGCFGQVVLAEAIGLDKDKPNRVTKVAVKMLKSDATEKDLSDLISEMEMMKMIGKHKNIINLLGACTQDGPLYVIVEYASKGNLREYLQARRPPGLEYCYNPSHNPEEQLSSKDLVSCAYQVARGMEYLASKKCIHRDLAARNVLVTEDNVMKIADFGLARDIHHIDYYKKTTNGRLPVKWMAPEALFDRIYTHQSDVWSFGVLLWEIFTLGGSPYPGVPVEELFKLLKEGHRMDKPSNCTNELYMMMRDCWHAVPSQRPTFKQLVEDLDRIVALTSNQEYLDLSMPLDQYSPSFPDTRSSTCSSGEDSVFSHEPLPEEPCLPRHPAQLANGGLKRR
# [37] = Volume of distribution at steady state in rat at 2 mg/kg, iv and 10 mg/kg, po; assay type: ADME, organism-based; conditions: in vivo, read-out: Vdss
# [38] = target: cAMP-dependent protein kinase catalytic subunit beta (Homo sapiens, UniProt P22694); assay: Inhibition of PKA-B
# [39] = Cmax in monkey at 10 mg/kg, po; assay type: ADME, organism-based, Macaca mulatta; parameters: dose 10 mg/kg, route oral; conditions: rhesus monkey, in vivo
# Focal adhesion kinase 1 = Focal adhesion kinase 1 (Homo sapiens, UniProt Q05397)
# [40] = Volume of distribution at steady state in mouse at 5 mg/kg, iv and 50 mg/kg, po; assay type: ADME, organism-based; conditions: in vivo, read-out: Vdss
# [41] = Antitumor activity against mouse IGFSal cell xenografted nu/nu athymic mouse at 50 mg/kg, po bid for 5 days; assay type: functional; conditions: 120 h, read-out: TGI
# [42] = Aqueous solubility of the compound; assay type: physicochemical; conditions: buffer
# [43] = target: Mitogen-activated protein kinase 14 (Homo sapiens, UniProt Q16539); assay: Inhibition of p38alpha
# Cytochrome P450 2D6 = Cytochrome P450 2D6 (Homo sapiens, UniProt P10635); assay: Inhibition of human recombinant CYP2D6 in human liver microsomes; assay type: ADME, Microsome
# Mus musculus [44] = assay: Induction of glucose homeostasis in mouse assessed as glucose elevation at 50 to 100 mg/kg prior to glucose challenge by OGTT; assay type: functional, organism-based
# [45] = Antitumor activity against human JJN3 cell xenografted nu/nu athymic mouse at 100 mg/kg, po bid for 21 days; assay type: functional; conditions: JJN-3, 504 h, read-out: TGI
# [46] = Cmax in rat at 10 mg/kg, po; assay type: ADME, organism-based; parameters: dose 10 mg/kg, route oral; conditions: in vivo
# [47] = Total clearance in rat at 2 mg/kg, iv and 10 mg/kg, po; assay type: ADME, organism-based; conditions: in vivo
# [48] = Total clearance in mouse at 5 mg/kg, iv and 50 mg/kg, po; assay type: ADME, organism-based; conditions: in vivo
structure (smiles),measurement,setting,value
COCCN1CCC(c2cc(C)c3nc(-c4c(NCCn5cc(Cl)cn5)cc[nH]c4=O)[nH]c3c2)CC1,fraction unbound at 10 µM,[1],0.038
same,IC50,Cytochrome P450 3A4,19.5 µM
same,IC50,[2],0.046 µM
same,EC20,[3],> 50 µM
same,AUC at 4 h,[4],1800 nM·h
Cc1cc(C2CCN(C)CC2)cc2[nH]c(-c3c(NCCn4cc(Cl)cn4)cc[nH]c3=O)nc12,IC50,Cytochrome P450 3A4,40 µM
same,IC50,[2],0.162 µM
same,EC20,[3],> 50 µM
same,AUC at 4 h,[4],400 nM·h
COc1ccc([C@H](O)CNc2cc[nH]c(=O)c2-c2nc3c(C)cc(C4CCN(CCCF)CC4)cc3[nH]2)cc1Cl,IC50,Cytochrome P450 3A4,10 µM
same,IC50,[2],0.04 µM
same,EC20,[3],> 50 µM
same,AUC at 4 h,[4],280 nM·h
Cc1cc(C2CCN(CCCF)CC2)cc2[nH]c(-c3c(NCCn4cc(Cl)cn4)cc[nH]c3=O)nc12,IC50,Cytochrome P450 1A2,> 40 µM
same,fraction unbound at 10 µM,[1],0.131
same,IC50,Cytochrome P450 3A4,26 µM
same,Papp,[5],109 nm/s
same,half-life,[6],4 h
same,Activity,Mus musculus [7],inactive
same,Activity,Mus musculus [8],inactive
same,half-life,[9],2.3 h
same,IC50,[10],11 µM
same,inhibition in vivo at 100 mg/kg,COLO 205,93%
same,Vd,[11],17 L/kg
same,IC50,Cytochrome P450 2C9,> 40 µM
same,Cmax,[12],0.27 µM
same,IC50,[13],0.072 µM
same,IC50,Phosphodiesterase 4,4 µM
same,IC50,[14],0.369 µM
same,Vd,[15],21 L/kg
same,IC50,Cytochrome P450 2C19,34 µM
same,clearance,[16],1.62 L/h/kg
same,IC50,[17],> 50 µM
same,IC50,[18],3.99 µM
same,IC50,[19],0.034 µM
same,Cmax,[20],2.3 µM
same,IC50,[21],6 µM
same,half-life,[22],10.5 h
same,bioavailability,[23],48%
same,IC50,[24],> 100 µM
same,IC50,[2],0.185 µM
same,IC50,[25],20.3 µM
same,EC20,[3],> 50 µM
same,bioavailability,[26],> 100%
same,bioavailability,[27],23%
same,inhibition in vivo at 100 mg/kg,[28],73%
same,bioavailability,[29],35%
same,IC50,[30],48.4 µM
same,AUC at 4 h,[4],3700 nM·h
same,Activity,Hepatocyte,Non-toxic
same,half-life,[31],7.3 h
same,IC50,[32],8.56 µM
same,clearance,[33],1.38 L/h/kg
same,IC50,[34],0.37 µM
same,IC50,[35],21 µM
same,IC50,[36],< 5 µM
same,Vd,[37],20 L/kg
same,IC50,[38],37.7 µM
same,Cmax,[39],0.4 µM
same,IC50,Focal adhesion kinase 1,0.165 µM
same,Vd,[40],18.2 L/kg
same,inhibition in vivo at 50 mg/kg,[41],81%
same,solubility,[42],0.137 mg/mL
same,IC50,[43],31 µM
same,IC50,Cytochrome P450 2D6,> 40 µM
same,Activity,Mus musculus [44],inactive
same,inhibition in vivo at 100 mg/kg,[45],80%
same,Cmax,[46],0.2 µM
same,clearance,[47],4.56 L/h/kg
same,clearance,[48],9.54 L/h/kg
Cc1cc(C2CCN(CCCF)CC2)cc2[nH]c(-c3c(NC[C@@H](O)c4cccc(Cl)c4)cc[nH]c3=O)nc12,IC50,[2],0.076 µM
same,EC20,[3],> 50 µM
